EP1377579B1 (Aventis Pharmaceuticals Inc., priority 2000, dated 2002)
Read-outs that look alike come from different tables or passages of the source.

Legend:
Colo-205 = experiment: In vitro proliferation assay (MTT), Colo-205; format: cell-based; settings: Homo sapiens
In short: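 After 3 days of compound exposure, MTT was added to Colo-205 cultures for 2–4 h at 37 °C. Formazan was dissolved in DMSO and absorbance read at 570 nm. Cells had been plated at 1000–2500/well and left to recover overnight; IC50 values came from the raw readings.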

NCI-H460 = experiment: In vitro proliferation assay (MTT), NCI-H460; format: cell-based; settings: Homo sapiens
In short: (§1)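 Overnight-recovered cultures (1000–2500 cells/well) were treated with compound for 3 days and then given MTT at 37 C for 2–4 hr. Dye was extracted with DMSO and read at 570 nm. IC50s were fitted to the absorbance-versus-concentration data.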

[1] = test system: neuronally differentiated PC12 cells, rat sympathetic neurons; settings: cited from earlier work; for concentration of maximal protection from death: camptothecin-treated PC12 cells or rat sympathetic neurons; for cell death: camptothecin-treated, at day 6
MDA-MB-435 = experiment: In vitro proliferation assay (MTT), MDA-MB-435; format: cell-based, human; settings: Homo sapiens
In short: (§2)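 Tetrazolium (MTT) reduction measures live cells remaining after 3 days with test compound, following overnight attachment at 1000–2500 cells/well. Dye is taken up in DMSO and read at 570 nm.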

HL-60 = experiment: In vitro proliferation assay (MTT), HL-60; format: cell-based; settings: Homo sapiens
In short: as §1

PC-3 = experiment: In vitro proliferation assay (MTT), PC-3; format: cell-based, human; settings: Homo sapiens
In short: as §2

cortical neuronal death = settings: cited from earlier work; for IC50: Park et al. 1997, read-out: IC50, protection against camptothecin-induced cortical neuronal death
Jurkat = experiment: In vitro proliferation assay (MTT), Jurkat; format: cell-based; settings: Homo sapiens, MTT assay, value (SD, n) where given, read-out: Jurkat Leuk. (IC50 µM)
In short: as §1

[2] = Red blood cell binding, human whole blood; format: in vitro ADME; settings: 30 minutes at 37°C, 500 ng/ml
Procedure: (§3) Compounds, including one positive control, are assessed for red blood cell (RBC) uptake, using a modified procedure based on the protocol reported in Sun, J.X.S., et al. High-performance liquid chromatographic analysis, plasma protein binding and red blood cell partitioning of phenprobamate. Biopharmaceutics and Drug Disposition, 8 (1987) 341-351.
(§4) Briefly, RBC uptake is evaluated by comparison of the levels in spiked plasma (n=3) and plasma isolated from spiked whole blood (n=3). Compounds are incubated with human and mouse whole blood, respectively, for 30 minutes at 37°C using a nominal concentration of 500 ng/ml. Following centrifugation, the plasma is removed and submitted for analysis. Each compound is also spiked into blank plasma at a nominal concentration of 500 ng/ml, and submitted for analysis. Levels in the two plasma samples (Cp' and Cp in the equation below) and the blood hematocrit are used to determine the red blood cell to plasma ratio (Crbc/Cp). (Crbc)/(Cp) = (Cpʹ)/(Cp•H)-((1-H))/(H) [formula] In equation 1, Cp' is the level of drug in the spiked "blank" plasma, Cp is the level of drug in the plasma of spiked whole blood, and H is the hematocrit. The hematocrit values are determined as 0.4 for human whole blood and 0.41 for mouse whole blood. The samples are analyzed with ESI LC/MS, using positive ion detection with an internal standard.
(§5) The red blood cell to plasma ratio is determined for each compound using equation 1. Tables 6 and 7 summarize the respective mean Crbc/Cp values and standard deviations for mouse and human whole blood, respectively, in descending order based on the red blood cell to plasma ratio, where"*" denotes Positive Control, and "ND" denotes Not Determined. MDL 108552 is included as a positive control for red blood cell uptake. Table 6. Red Blood Cell to Plasma Ratio for compounds in mouse whole blood

cdk1/cyclin B = cdk1/cyclin B (Homo sapiens, UniProt P06493); experiment: Cyclin-dependent kinase assay, cdk1/cyclin B; settings: CDK1 IC50, nM, Histone H1, 10 µM ATP
cdk1/cyclin B, sequence (P06493 whole entry): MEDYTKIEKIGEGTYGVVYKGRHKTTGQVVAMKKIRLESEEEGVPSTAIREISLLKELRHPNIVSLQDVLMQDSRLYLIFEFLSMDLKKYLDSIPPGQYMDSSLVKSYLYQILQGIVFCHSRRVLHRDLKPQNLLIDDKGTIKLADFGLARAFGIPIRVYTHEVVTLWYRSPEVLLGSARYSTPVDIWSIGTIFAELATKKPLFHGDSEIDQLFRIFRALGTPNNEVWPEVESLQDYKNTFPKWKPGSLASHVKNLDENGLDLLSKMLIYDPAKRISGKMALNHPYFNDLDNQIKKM
cdk1/cyclin B, sequence (P14635 whole entry partner): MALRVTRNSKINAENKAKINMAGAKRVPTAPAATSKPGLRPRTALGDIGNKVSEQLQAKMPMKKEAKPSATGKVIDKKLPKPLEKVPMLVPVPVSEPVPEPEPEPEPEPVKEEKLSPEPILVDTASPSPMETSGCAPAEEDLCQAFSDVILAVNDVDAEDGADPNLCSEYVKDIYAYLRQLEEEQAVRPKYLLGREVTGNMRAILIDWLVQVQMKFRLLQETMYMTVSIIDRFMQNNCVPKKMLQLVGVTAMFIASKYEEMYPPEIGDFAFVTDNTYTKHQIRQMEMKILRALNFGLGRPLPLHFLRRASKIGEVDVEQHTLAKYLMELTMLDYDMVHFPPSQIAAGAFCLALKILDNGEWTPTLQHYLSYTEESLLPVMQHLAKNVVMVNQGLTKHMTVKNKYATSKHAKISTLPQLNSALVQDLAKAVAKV

[3] = test system: PC-3 Human Prostate Tumors; experiment: PC-3 human prostate tumor xenograft in nude mice; format: in vivo; parameters: unit not given here; settings: Table 5
Procedure: (§6) Antitumor efficacy is assessed using two subcutaneous human tumor xenograft models. The studies are performed using conventional assay techniques. Briefly, HL-60 (leukemia, 5 x10^5 cells) and PC-3 (prostate, 5 x 10^6 cells) tumor cells are injected subcuateously into nude mice (Crl-CD1-Br-nu, Charles River Laboratory, Wilmington, MA). Dosing with compounds began when tumors reached 50 to 100 mm^3. The dose route/schedule for the test compounds is ip/qld (5x/wk). The test doses are set based on the maximum tolerated dose (MTD). […] The test doses for the efficacy studies are set at 1/3rd the MTD (low dose) and the MTD (high dose). The results are shown in Tables 4 and 5 (HL-60, leukemia) (PC-3, prostate cancer). The length of the treatment phase is dependent on the tumor growth rate for the two models. This treatment phase is typically about 3 weeks for the HL-60 model and about 5 weeks for the PC-3 model. […] Dosing with flavopiridol is for the same time frame as for the experimental compounds in both xenograft models. Tumor volume (twice weekly) and body weights (once weekly) are monitored throughout the course of the treatment phase of the experiment. Tumor sizes are measured by external caliper measurements of protruding tumor. Volumes are calculated using the following formula: volume =½ (a x b2), where b is the smaller of two perpendicular diameters.

cdk4/cyclin D1 = cdk4/cyclin D1 (Homo sapiens, UniProt P11802); experiment: Cyclin-dependent kinase assay, cdk4/cyclin D1; format: biochemical; settings: cyclin D1/cdk4; GST-pRb substrate, 10 µM ATP
cdk4/cyclin D1, sequence (P11802 whole entry): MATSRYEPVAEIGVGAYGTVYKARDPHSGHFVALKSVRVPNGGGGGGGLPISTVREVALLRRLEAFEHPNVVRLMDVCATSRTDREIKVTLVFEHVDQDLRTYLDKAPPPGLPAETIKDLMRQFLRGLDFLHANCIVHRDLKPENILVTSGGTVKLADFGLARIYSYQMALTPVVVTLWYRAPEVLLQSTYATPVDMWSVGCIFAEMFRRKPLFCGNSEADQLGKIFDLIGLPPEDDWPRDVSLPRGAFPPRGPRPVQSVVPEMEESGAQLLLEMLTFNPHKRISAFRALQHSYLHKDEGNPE
cdk4/cyclin D1, sequence (P24385 whole entry partner): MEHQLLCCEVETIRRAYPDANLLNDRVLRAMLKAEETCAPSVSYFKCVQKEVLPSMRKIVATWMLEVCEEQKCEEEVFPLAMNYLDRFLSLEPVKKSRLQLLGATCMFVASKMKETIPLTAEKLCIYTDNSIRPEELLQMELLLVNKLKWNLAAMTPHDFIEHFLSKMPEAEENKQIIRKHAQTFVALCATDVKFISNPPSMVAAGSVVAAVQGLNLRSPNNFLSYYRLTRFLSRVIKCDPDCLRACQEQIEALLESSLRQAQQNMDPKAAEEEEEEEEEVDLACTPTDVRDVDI

cdk2/cyclin E = cdk2/cyclin E (Homo sapiens, UniProt P24941); experiment: Cyclin-dependent kinase assay, cdk2/cyclin E; settings: CDK2 IC50, nM, GST-pRb substrate, 10 µM ATP
in vivo = settings: male, Hsd:ICR (CD-1), mouse, plasma
Procedure: (§7) Male mice are given single intravenous cassette doses of CDK inhibitor compounds.
(§8) Doses are adjusted for the weight of the individual dihydrochloride and trihydrochloride salts. The compounds are stored desiccated within a closed cabinet at room temperature before use. Dose levels are prepared on the morning of each study.
(§9) A single intravenous cassette dose (18 or 15 mg/kg free base) is administered. For each compound, this is equivalent to a dose of approx. 3 mg/kg free base. […] The dose is administered at a volume of 10 ml/kg (total volume of approximately 0.25 ml/animal).
(§10) Male mice (Hsd:ICR (CD-1® SD®), Harlan), each weighing approximately 20 - 30 g at the start of the study. […] Water is available ad libitum throughout the study.
(§11) Dose Administration and Sample Collection: • A single cassette dose of 5-6 compounds is administered by bolus injection into the tail vein over a 10 - 15-second period. […] Whole blood (approximately 0.6 ml/sample) is obtained by cardiac puncture and transferred to 3 ml glass tubes containing 45 U sodium heparin.
(§12) Sample Processing: Plasma: Whole blood is centrifuged at approximately 3,200 rpm for 10 min at approximately 5°C and the plasma (approx. 0.3 ml/sample) is transferred to chilled plastic vials and stored at approx. -70°C until bioanalysis.
(§13) Sample Analysis: Concentrations of each test article in plasma are quantitated by a non-validated method based on LC/MS using the following protocol.
(§14) Samples are removed from the freezer, allowed to thaw at room temperature, and vortexed to insure complete homogenization prior to sample manipulation. Samples are then prepared according to the following scheme: • 1. transfer 48 µL of plasma (blank mouse sample) into a 12 x 75 mm test tube. • 2. add 12 µL of working standard to the blank plasma for standard curve preparation. • 3. […] Inject 25 µL on LC/MS.
(§15) Data Analysis: Concentrations of Compounds in plasma of individual animals are determined by bioanalytics. […] Statistical analyses are limited to simple expressions of variation (mean and standard deviation). The plasma AUC (area-under-curve) is determined by the linear trapezoidal rule. […] All PK parameters are determined by noncompartmental methods using WinNonlin version 3.0 (Pharsight Corp). Plasma vs. time profiles are prepared by Sigma Plot (SPSS, Inc.).

[4] = Bioavailability experiment in mice given single intravenous cassette doses; settings: for Cls: mice plasma, single intravenous cassette dose
Procedure: as §7, §8, §9, §10, §11, §12, §13, §14, §15

HL-60 Human Leukemia = experiment: HL-60 human leukemia xenograft in nude mice; format: in vivo; settings: Table 5
Procedure: as §6

[5] = Red blood cell binding, mouse whole blood; format: in vitro ADME; settings: 30 minutes at 37°C, 500 ng/ml
Procedure: as §3, §4, §5

[6] = COLO 205, read-out: Colo-205 Colon (IC50 µM)
[7] = NCI-H460, read-out: H-460 Lung (IC50 µM)
[8] = MDA-MB-435, read-out: MB-435 Breast (IC50 µM)
[9] = PC-3, read-out: PC-3 Prostate (IC50 µM)
[10] = camptothecin-treated neuronal cells

SMILES	concentration of maximal protection from death [1] [µM]	cell death [1]	IC50 (cortical neuronal death) [nM]	Mean Red Blood Cell to Plasma Ratio [2]	IC50 (Colo-205; [6]) [µM]	IC50 (NCI-H460; [7]) [µM]	IC50 (cdk1/cyclin B) [nM]	IC50 (MDA-MB-435; [8]) [µM]	PC-3 Mean Vol. ± SD ([3]; dose 1 mg/kg ip)	PC-3 Mean Vol. ± SD ([3]; dose 3 mg/kg ip)	IC50 (cdk4/cyclin D1) [nM]	IC50 (cdk2/cyclin E) [nM]	AUC(0-inf) (in vivo; iv, 3 mg/kg) [ng·h/mL]	Cmax (in vivo; iv, 3 mg/kg) [ng/mL]	half-life (in vivo; iv, 3 mg/kg) [h]	IC50 (PC-3; [9]) [µM]	HL60 Mean Vol. ± SD (HL-60 Human Leukemia; dose 1 mg/kg ip)	HL60 Mean Vol. ± SD (HL-60 Human Leukemia; dose 3 mg/kg ip)	further results
CN1CC[C@H](c2c(O)cc(O)c3c(=O)cc(-c4ccccc4Cl)oc23)[C@H](O)C1 [Flavopiridol, flavopiridol, reference compound]	1	approximately 30%	100	–	–	–	–	–	–	–	–	–	–	–	–	–	–	–	IC50 (Colo-205; COLO 205, MTT assay, value (SD, n) where given, read-out: Colo-205 Colon (IC50 µM)): 0.03 µM; IC50 (NCI-H460; NCI-H460, MTT assay, value (SD, n) where given, read-out: H-460 Lung (IC50 µM)): 0.07 µM; IC50 (MDA-MB-435; MDA-MB-435, MTT assay, value (SD, n) where given, read-out: MB-435 Breast (IC50 µM)): 0.09 µM; IC50 (HL-60; HL-60, MTT assay, value (SD, n) where given, read-out: HL-60 Leuk. (IC50 µM)): 0.02 µM; IC50 (PC-3; PC-3, MTT assay, value (SD, n) where given, read-out: PC-3 Prostate (IC50 µM)): 0.08 µM; IC50 (Jurkat): 0.08 µM
Cn1cnc2c(NCc3ccccc3)nc(NCCO)nc21 [Olomoucine, 6-(benzylamino)-2-[(2-hydroxyethyl)amino]-9-methylpurine]	200	approximately 30%	100000	–	–	–	–	–	–	–	–	–	–	–	–	–	–	–	–
Cc1ccc(OC(=O)N2CCC(Nc3nc(N[C@H]4CC[C@H](N)CC4)nc4c3ncn4C3CCCC3)CC2)cc1.Cl.Cl [compound 82, trans-4-[2-(4-Amino-cyclohexylamino)-9-cyclopentyl-9H-purin-6-ylamino]-piperidine-1-carboxylic acid p-tolyl ester dihydrochloride]	–	–	–	5.8	0.06	0.08	31	0.06	810 ± 600	967 ± 407	131	45	944	1460	3	0.12	5164 ± 55516	2841 ± 1845	IC50 (HL-60; HL-60, read-out: HL-60 Leuk. (IC50 µM)): 0.04 µM; concentration at 0.083 h (in vivo; intravenous, 3 mg/kg): 1460 ± 77.4 ng/mL; concentration at 0.25 h (in vivo; intravenous, 3 mg/kg): 875 ± 96.7 ng/mL; concentration at 0.5 h (in vivo; intravenous, 3 mg/kg): 370 ± 40 ng/mL; concentration at 1 h (in vivo; intravenous, 3 mg/kg): 134 ± 16.3 ng/mL; concentration at 3 h (in vivo; intravenous, 3 mg/kg): 37.5 ± 10.7 ng/mL; concentration at 6 h (in vivo; intravenous, 3 mg/kg): 14.5 ± 3.4 ng/mL; concentration at 8 h (in vivo; intravenous, 3 mg/kg): 12.3 ± 2.2 ng/mL; Cls ([4]; 3 mg/kg/compound (15 mg/kg Total Dose), Cassette #4): 53.0 mL/min/kg; Conc. in plasma ([4]; mice, single 15 mg/kg intravenous cassette dose (3 mg/kg/compound), Cassette #4, 24 h, BLQ = below assay quantification limit (approximately 1 ng/ml)): BLQ
Cl.Cl.N[C@H]1CC[C@H](Nc2nc(NC3CCN(C(=O)Oc4ccccc4)CC3)c3ncn(C4CCCC4)c3n2)CC1 [compound 85, trans-4-[2-(4-Amino-cyclohexylamino)-9-cyclopentyl-9H-purin-6-ylamino]-piperidine-1-carboxylic acid phenyl ester dihydrochloride]	–	–	–	7.1	0.03	0.06	26	0.03	912 ± 755	1208 ± 1247	65	8	467	843	2.3	0.06	3590 ± 2674	5215 ± 4068	Mean Red Blood Cell to Plasma Ratio [5]: 6.1; concentration at 0.083 h (in vivo; iv, 18 mg/kg): 843 ± 124 ng/mL; concentration at 0.25 h (in vivo; iv, 18 mg/kg): 342 ± 45.1 ng/mL; concentration at 0.5 h (in vivo; iv, 18 mg/kg): 164 ± 15.7 ng/mL; concentration at 1 h (in vivo; iv, 18 mg/kg): 89 ± 21.5 ng/mL; concentration at 3 h (in vivo; iv, 18 mg/kg): 14.3 ± 7.1 ng/mL; concentration at 6 h (in vivo; iv, 18 mg/kg): 5.2 ± 1.9 ng/mL; concentration at 8 h (in vivo; iv, 18 mg/kg): 3.2 ± 0.8 ng/mL; Conc. (ng/ml) in plasma ([4]; Cassette #1, single 18 mg/kg intravenous cassette dose, mice, 24 h, BLQ = below assay quantification limit): BLQ; Cls ([4]; 3 mg/kg/compound (18 mg/kg Total Dose), Cassette #1): 107.1 mL/min/kg
Cn1cnc2nc(NCCO)nc(NCc3ccccc3)c21 [iso-olomoucine]	–	–	–	–	–	–	–	–	–	–	–	–	–	–	–	–	–	–	prevention of cell death [1, 10]: failed to prevent the cell death; prevention of cell death (cortical neuronal death; [10]): failed to prevent the cell death
